Eight compounds from patent US6827926B2, “Metallotetrapyrrolic photosensitizing agents for use in photodynamic therapy” (Miravant Pharmaceuticals, Inc., priority 2001, dated 2004) can be followed below.

SMILES strings stand for the structures. Read-outs that look alike come from different tables or passages of the source.

Data set [1] relates to V79 (Chinese Hamster Lung Fibroblasts) cells. Description: In vitro cytotoxicity assay (light EC50, Alamar blue). Type of data set: cell-based. A digest of the protocol:
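V79 cells in phenol-free 5% FBS/DMEM exposed 24 h to photosensitizer at final 0.01–5.0 μM, six replicates, then washed and light-treated, with a dark plate as control. Survival by Alamar blue after 24 h dark incubation, read at 570/600 nm.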

Data set [2] has as its system normal skin of CD Hairless male rats. Type of data set: in vivo, rat. An outline of the steps: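 Liposomal egg yolk phospholipid photosensitizer given as single i.v. tail-vein bolus at 1, 1.5 and 2 μmol/kg; skin spots irradiated with 532 nm laser (150 mW/cm^2, 150J, 1 cm) at 1, 6, 24, 48, 96 hrs post injection. Value is time of last observed skin response spot.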
Data set [3] concerns normal uninjured rat carotid arteries (medial and adventitial cell populations). Description: In vivo rat carotid artery acellularity after PDT. On the set-up: species or system Sprague Dawley rats. The settings on record: for Max % rat Artery Accelularity: Table 3, 50 J/cm^2, 3 days post treatment; for Max % Rat Artery Accelularity: Table 4. An outline of the steps: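 Metallated photosensitizers light-activated in normal uninjured rat left common carotid via balloon catheter introduced through femoral arteriotomy under isoflurane; excitation 575 nm (Ga, Zn, Al, Sn) or 532 nm (Pt). Arteries harvested 3 days post-treatment, H&E-stained; medial and adventitial cell density assessed by light microscopy.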

In data set [4] the test system is skin of Sprague Dawley rats. The experiment in a line: Topical in-vivo skin response, Sprague Dawley rats (single topical dermal application).
The nature of data set [5]: Systemic toxicity in animals near the therapeutic dose. The settings on record: 3× the therapeutic dose.
Setting [6] is: Table 3 porphyrins, 24 h drug incubation, 532 nm, 1.25 J/cm^2, read-out: In Vitro EC50 Light.
[7] abbreviates: Table 3, time of last skin spot observed post injection, 1 μmol, 532 nm laser.
The mark [8] stands for this setting: Table 4 azaporphyrins, 575 nm (Pt azaporphyrins 532 nm), 1.25 J/cm^2, read-out: In Vitro EC(50).
[9] abbreviates: drug dose 1 μMol, 575 nm (Pt 532 nm).

With `CCCOC(=O)CCC1=C(C)c2cc3[n-]c(cc4nc(cc5[n-]c(cc1n2)c(CCC(=O)OCCC)c5C)C(CC)=C4C)c(CC)c3C.[Cl-].[Ga+3]` [Example 3, Gallium Chloride Mesoporphyrin Dipropyl Ester], the EC50 in data set [1] (setting [6]) came out at 60 nM. Further, in data set [2] (setting [7]), the “Normal skin Response (1 μmol)” value turned out to be 6 h. Besides, the “Max % rat Artery Accelularity” value in data set [3] (drug dose 1 μMol) is recorded as 85%. For the same compound, in data set [4] (topical 0.14 mg/cm^2), the “delay of hair regrowth” value was “approximately 21 days” and the skin response entry is given as “no skin response”. In data set [4] (topical 0.28 mg/cm^2), the “clearing formation of the skin first seen, time post light treatment” value was found to be 7 days; the “delay of hair regrowth in the treatment site post light treatment” value is listed as “approximately 38 days”; the “persistence of clearing formation of the skin” value was “at least 28 days”. Moreover, in data set [4] (topical 0.6 mg/cm^2), the “clearing formation, duration” value was “at least 30 days”; the “skin responses (small, slight eschar), duration post light treatment” value is recorded as “approximately 10 days”; the “time hair did not regrow in the treatment site post light treatment” value is given as “approximately 38 days”; the “variable clearing persisting post light treatment” value is reported as “up to 3 months”.
For the compound `CCC1=C(C)c2cc3[n-]c(cc4nc(cc5[n-]c(cc1n2)c(C)c5CC)C(C)=C4CCCC(=O)OC)c(CCCC(=O)OC)c3C.[Cl-].[In+3]` [Example 46, Indium Chloride 8,13-diethyl-3,7,12,17-tetramethylporphyrin-2,18-di(butanoic acid methyl ester)], the EC50 in data set [1] (setting [6]) was determined as 40 nM. Besides, the “Normal skin Response (1 μmol)” value in data set [2] (setting [7]) was 48 h. Also, in data set [3] (drug dose 1 μMol), the “Max % rat Artery Accelularity” value came out at 90%. For the same compound, in data set [5], the toxicity in animals result was “death occurs in the animals at 3× the therapeutic dose”.
Take `CCOC(=O)CCCCC1=C(C)c2cc3[n-]c(cc4nc(cc5[n-]c(cc1n2)c(CCCCC(=O)OCC)c5C)C(C)=C4CC)c(C)c3CC.[Cl-].[In+3]` [Example 52, Indium Chloride 8,13-diethyl-3,7,12,17-tetramethylporphyrin-2,18-di(pentanoic acid ethyl ester)]: in data set [1] (setting [6]), the EC50 is 50 nM. Moreover, in data set [2] (rat, in vivo), the “Normal skin Response (1 μmol)” value was 48 h. Besides, the “Max % rat Artery Accelularity” value in data set [3] (drug dose 1 μMol) stood at 75%.
Take `CCC1=C(CC)C2=[N+]3C1=Nc1c(CC)c(CC)c4[n]1[Sn-2]31([Cl])([Cl])[n]3c(c(C)c(CCC(=O)OC)c3=CC3=[N+]1C(=C4)C(C)=C3CCC(=O)OC)=C2` [Example 82, Tin(IV)dichloride 7,8,12,13-tetraethyl-12,17-dimethyl-10-azaporphyrin-2,18-di(propionic acid methyl ester)]: the EC50 in data set [1] (setting [8]) was 400 nM. Also, the “Normal skin Response (1 μmol)” value in data set [2] (rat, in vivo) is 96 h. In addition, the “Max % Rat Artery Accelularity” value in data set [3] (setting [9]) turned out to be 30%.
For `CCOC(=O)CCC1=C(C)c2cc3[n-]c(cc4nc(cc5[n-]c(cc1n2)c(CCC(=O)OCC)c5C)C(CC)=C4C)c(CC)c3C.[Cl-].[Ga+3]` [Example 2, Gallium Chloride Mesoporphyrin Diethyl Ester], in data set [1] (setting [6]), the EC50 worked out at 490 nM. The “Normal skin Response (1 μmol)” value in data set [2] (rat, in vivo) is 24 h. The “Max % rat Artery Accelularity” value in data set [3] (drug dose 1 μMol) came out at 80%.
In the case of `CCC1=C(CC)C2=[N+]3C1=Nc1c(CC)c(CC)c4[n]1[Ga-2]31([Cl])[n]3c(c(C)c(CCC(=O)NC)c3=CC3=[N+]1C(=C4)C(C)=C3CCC(=O)NC)=C2` [Example 22, Gallium Chloride 7,8,12,13-tetraethyl-12,17-dimethyl-10-azaporphyrin-2,18-di(propionic acid methyl amide)], the EC50 in data set [1] (setting [8]) was 450 nM. Besides, the “Normal skin Response (1 μmol)” value in data set [2] (rat, in vivo) was determined as 48 h. Further, in data set [3] (drug dose 0.5 μMol), the “Max % Rat Artery Accelularity” value amounted to 50%.
Consider `CCC1=C(CC)C2=Nc3c(CC)c(CC)c4[n]3[Sn]([Cl])([Cl])[n]3c(c(C)c(CCC(=O)NC)c3=CC3=NC(=C4)C(C)=C3CCC(=O)NC)=CC1=N2` [Example 90, Tin (IV) Dichloride 7,8,12,13-tetraethyl-12,17-dimethyl-10-azaporphyrin-2,18-di(propionic acid methyl amide)], for which, in data set [1] (setting [8]), the EC50 stood at 500 nM. Besides, the “Normal skin Response (1 μmol)” value in data set [2] (rat, in vivo) was determined as 96 h. In data set [3] (setting [9]), the “Max % Rat Artery Accelularity” value was 30%.
As for `CCC1=C(C)C2=[N+]3C1=Cc1c(C)c(CC)c4[n]1[Sn-2]31([Cl])([Cl])[n]3c(c(C)c(CCC(=O)NC)c3=CC3=[N+]1C(=C4)C(C)=C3CCC(=O)NC)=C2` [Example 58, Tin(IV)dichloride Mesoporphyrin N-methylamide], in data set [1] (setting [6]), the EC50 stood at 1200 nM. Besides, the “Normal skin Response (1 μmol)” value in data set [2] (rat, in vivo) was found to be 24 h. Further, in data set [3] (drug dose 1 μMol), the “Max % rat Artery Accelularity” value was 10%.
